Key:
[1] = Example 7: weight loss and tolerability in obese subjects; settings: for mean changes from baseline in weight: 2 weeks
Experimental: This example involved a clinical study of the compound of formula (I), which was a randomized, double-blind, placebo-controlled, ascending dose study to evaluate the safety, tolerability and pharmacokinetics/pharmacodynamics of the compound of formula (I) tablets administered twice daily for two weeks in obese subjects.
The subjects were separated into four arms of nine (one with ten) test subjects (which were administered the compound of formula (I)) and three placebo subjects.

[2] = Example 9: caloric/food intake and appetite; format: in vivo, human; settings: 3.5 mg BID, Day 10/11
Experimental: The study enrolled 16 obese male subjects (18-65 years of age (inclusive), with a body mass index (BMI) >30.0 kg/m^2 and <40.0 kg/m^2) who participated in two treatment periods. During Period 1, 8 subjects were randomized to receive 3.5 mg of the compound of formula (I), and 8 subjects were randomized to receive placebo. The compound of formula (I) or placebo was administered twice daily (BID), 30 minutes after the start of breakfast and dinner, for 10 days. All subjects were discharged from the clinic at the end of Period 1 for a 9±2 day discharge period. Subjects then returned for treatment during Period 2, in which (i) the group previously receiving the compound of formula (I) now received placebo, and (ii) the group previously receiving placebo now received the compound of formula (I), in accordance with the protocol described above.
A secondary objective of this study was to examine the effects on caloric/food intake and appetite. Therefore, other secondary PD endpoints in this study included caloric intake and meal weight consumed on Day 10 of each period, as well as visual analog scale (VAS) assessments of hunger, prospective consumption, and fullness on Day 10/11 of each period. VAS assessments of thirst and nausea on Day 10/11 of each period were part of the exploratory analysis.

[3] = Example 1: repeated oral dose study of capsules, safety
Experimental: The subjects were divided into two dosing groups, and within each dosing group, the subjects were divided as follows: 6 subjects received the compound of formula (1) and 3 subjects received placebo. […] Subjects were in a fed condition prior to administration of each capsule.
Each active capsule contained a filling solution and a gelatin solution. The filling solution comprised the compound of formula (I) (5 mg), propylene glycol esters of fatty acids, and dehydrated ethanol. The gelatin solution comprised purified water, gelatin, and anhydrized liquid sorbitol. The filling solution and gelatin solution were prepared individually and combined to form a soft capsule. The placebo capsules were prepared in a similar manner except that the filling solution contained only propylene glycol esters of fatty acids and dehydrated ethanol.

[4] = Example 3: repeated dose study of tablets 1 or 2 mg BID, safety
Experimental: The subjects were divided into two dosing groups and within each dosing group, the subjects were divided as follows: 6 subjects received the compound of formula (I) and 3 subjects received placebo.
For the determination of plasma concentrations of the compound of formula (I) and metabolite M1 in this study, the bioanalytical method achieved a sensitivity (LLOQ) of 0.3 ng/mL. Adverse event (AE) information was collected from each subject.

[5] = test system: serum lipid levels; assay: Example 1: serum lipid levels; format: in vivo, human
Experimental: In this study, lipids related to lipoprotein metabolism were determined as serum lipid test items. In the active group, postprandial elevations for RLP-C, TG, LDL-TG, HDL-TG, CM-TG, and ApoB48 (reference data) were inhibited, while LDL-C, HDL-C, TC, and ApoB values decreased. The manifestation of those effects required 3 to 7 days. […] This effect is attributable to the inhibition of diet-derived lipid absorption based on the MTP inhibitory activity of the compound of formula (I) in the small intestine.

[6] = Example 5: fixed-dose or escalating doses, safety; format: in vivo, human
Experimental: Fifty-two Japanese patients with hyperlipidemia (LDL-C between 140 and 220 mg/dL; TG≦400 mg/dL) participated in the study. […] One group received a fixed dose of 2 mg per tablet through the entire study. The other group received escalating doses of 0.5 mg (weeks 1-4), 1 mg (weeks 5-8), and 2 mg (weeks 9-12). For the efficacy analysis, 50 subjects were observed (25 in the fixed-dose group and 25 in the dose escalation group).
The objective of this study was preliminary evaluation of the efficacy (based on serum lipid levels), safety, and pharmacokinetics of the compound of formula (I) administered orally twice daily after breakfast and supper for 12 weeks as a fixed dose (4 mg/day) or escalating dose (1 mg/day, 2 mg/day and 4 mg/day) regimen in patients with hyperlipidemia.

[7] = Example 2: plasma and urine pharmacokinetics; format: in vivo, human
Experimental: Each tablet contained 5 mg (BID), 10 mg (QD), 20 mg (QD), or 30 mg (QD).

[8] = test system: serum lipid levels; assay: Example 3: serum lipid levels; format: in vivo, human; settings: active groups
Experimental: Eighteen healthy Japanese males 20 to 35 years of age with a BMI of 18.5 to 25 kg/m^2 participated in the study. The subjects were divided into two dosing groups and within each dosing group, the subjects were divided as follows: 6 subjects received the compound of formula (I) and 3 subjects received placebo. The dosing regimen was oral administration of a tablet twice a day for 14 days after breakfast and dinner (specifically, within 180 minutes of the commencement of eating), in which each tablet contained 1 mg (2 mg/day) or 2 mg (4 mg/day).

[9] = 10, 20, 30 mg QD, initial dose Day 1

**Q.** What does the source list for `CCOC(=O)C(COC(=O)Cc1ccc(NC(=O)c2ccccc2-c2ccc(C(F)(F)F)cc2)c(C(=O)N(C)C)c1)(C(=O)OCC)c1ccccc1` [compound of formula (I), diethyl 2-((2-(3-(dimethylcarbamoyl)-4-(4′-(trifiuoromethyl)biphenyl-2-ylcarboxamido)phenyl)acetoxy)methyl)-2-phenyl malonate]?
**A.** mean changes from baseline in weight ([1]; 1 mg BID): -0.31 kg; average weight loss ([1]; 1 mg BID, 14 days): 0.31 kg; mean changes from baseline in weight ([1]; 2.5 mg BID): -0.68 kg; average weight loss ([1]; 2.5 mg BID, 14 days): 0.68 kg; mean changes from baseline in weight ([1]; 3.5 mg BID): -1.39 kg; average weight loss ([1]; 3.5 mg BID, 14 days): 1.39 kg; average weight loss ([1]; 5 mg BID, 14 days): 2.07 kg; average weight loss ([1]; 5 mg BID, Day 10 (n=9)): 2.32 kg; subjects who withdrew due to GI-related adverse events prior to Day 14 ([1]; 5 mg dose group): six; tolerability at 5 mg BID ([1]; obese subjects): not at 5 mg BID; well tolerated doses ([1]; obese subjects): up to 3.5 mg BID; caloric intake, meal weight consumed, VAS of hunger, prospective consumption, fullness, thirst, nausea [2]: no statistically significant treatment differences; number of adverse events ([3]; 5 mg group): 12; subjects with adverse events (incidence) ([3]; 5 mg group): 83%; vitamins A and E ([3]; 15 mg BID group): Decreased; number of adverse events ([3]; 15 mg group): 32; subjects with adverse events (incidence) ([3]; 15 mg group): 100%; subjects with diarrhea ([3]; 15 mg group, of 6 subjects): 6 subjects; death or serious adverse events ([3]; 5 or 15 mg BID after meals, 14 days, capsules): neither death nor serious adverse events were reported; incidence of ALT increased ([3]; active group): 17%; incidence of abdominal discomfort ([3]; active group): 25%; incidence of anorexia ([3]; active group): 42%; incidence of diarrhea ([3]; active group): 67%; incidence of gastrointestinal disorders (SOC) ([3]; active group): 75%; incidence of investigations (SOC) ([3]; active group): 33%; incidence of metabolism and nutrition disorders (SOC) ([3]; active group): 42%; incidence of moderate abdominal discomfort ([3]; active group): 8%; incidence of moderate diarrhea ([3]; active group): 58%; incidence of moderate feeling queasy ([3]; active group): 8%; incidence of moderate stomach discomfort ([3]; active group): 8%; incidence of stomach discomfort ([3]; active group): 58%; subjects with adverse events (incidence) ([3]; active group (5 and 15 mg BID), 12 subjects): 92%; number of adverse events ([3]; active group, 12 subjects): 44; tolerable dosage ([3]; long-term treatment in outpatients): 5 mg BID; doses at which diarrhea occurred ([3]; repeated BID administration): ≥ 5 mg; subjects with adverse events (incidence) ([4]; 1 mg BID): 66.7%; subjects with adverse events (incidence) ([4]; 2 mg BID): 50.0%; fat-soluble vitamins (vitamin A, 25-OH vitamin D, and vitamin E) ([4]; 1 and 2 mg BID): no decrease; severity of all adverse events ([4]; 1 and 2 mg BID): mild; death or serious adverse events ([4]; 1 or 2 mg BID tablets, 14 days): No death or other serious adverse events occurred; subjects with adverse events (incidence) ([4]; active group, 12 subjects): 58.3%; incidence of diarrhea ([4]; overall compound group): 25.0%; incidence of gastrointestinal disorders (SOC) ([4]; overall compound group): 41.7%; incidence of investigations (SOC) ([4]; overall compound group): 33.3%; incidence of loose stools ([4]; overall compound group): 25.0%; tolerable dose ([4]; twice daily for 14 days, tablets): up to 2 mg; LDL-C, HDL-C, TC, and ApoB values ([5]; active group): decreased; postprandial elevations for RLP-C, TG, LDL-TG, HDL-TG, CM-TG, and ApoB48 ([5]; active group): inhibited; increase in postprandial values for RLP-C, TG, LDL-TG, HDL-TG, and CM-TG ([5]; after the first dose on Day 1): inhibited an increase; events of gastrointestinal disorders ([6]; dose escalation group): 14; events of infections and infestations ([6]; dose escalation group): 6; events of laboratory test ([6]; dose escalation group): 11; incidence of gastrointestinal disorders (SOC) ([6]; dose escalation group): 34.6%; incidence of infections and infestations (SOC) ([6]; dose escalation group): 19.2%; incidence of laboratory test (SOC) ([6]; dose escalation group): 23.1%; incidence of moderate adverse events ([6]; dose escalation group): 15.4%; number of adverse events ([6]; dose escalation group): 37; subjects with adverse events (incidence) ([6]; dose escalation group): 65.4%; subjects with moderate diarrhea ([6]; dose escalation group): three; incidence of gastrointestinal disorders ([6]; dose escalation group, Weeks 9 to 12 (4 mg/day)): 20.0%; events of gastrointestinal disorders ([6]; fixed-dose group): 25; events of infections and infestations ([6]; fixed-dose group): four; events of laboratory test ([6]; fixed-dose group): nine; incidence of gastrointestinal disorders (SOC) ([6]; fixed-dose group): 50.0%; incidence of infections and infestations (SOC) ([6]; fixed-dose group): 15.4%; incidence of laboratory test (SOC) ([6]; fixed-dose group): 23.1%; incidence of moderate adverse events ([6]; fixed-dose group): 15.4%; number of adverse events ([6]; fixed-dose group): 45; subjects with adverse events (incidence) ([6]; fixed-dose group): 65.4%; subjects with moderate diarrhea ([6]; fixed-dose group): four; incidence of gastrointestinal disorders ([6]; fixed-dose group, Weeks 1 to 4 (4 mg/day)): 46.2%; systolic and diastolic blood pressure, pulse rate, body temperature, body weight, ultrasonography ([6]; in vivo): No clinically relevant abnormal changes; death or serious adverse events ([6]; tablets BID, 12 weeks): No death or other serious adverse events occurred; subjects with Cmin detected sporadically ([7]; 5 mg BID): 4 of 6 subjects; Cmin of the compound of formula (I) ([7]; 10 mg QD, Day 2 to 14): below the limit of quantization; subjects with Cmin detected sporadically ([7]; 20 mg QD): 1 of 6 subjects; subjects with Cmin detected sporadically ([7]; 30 mg QD): 4 of 6 subjects; AUC0-24hr dose proportionality [7, 9]: greater than dose-proportional; Cmax dose proportionality [7, 9]: greater than dose-proportional; plasma compound of formula (I) ([7]; after initial dose on Day 1, all groups): quantifiable; compound in urine ([7]; all groups): not quantifiable in urine; Cmin of the compound of formula (I) ([7]; all subjects): less than 3 ng/mL; Cmax and AUC0-24hr dose proportionality ([7]; final dose on Day 14): dose-proportional; postprandial elevation in TG, HDL-TG, LDL-TG, Midband-TG, and CM-TG [8]: inhibited a postprandial elevation

Reference: patent publication US20120302636A1, “METHOD OF TREATING A DISORDER ASSOCIATED WITH MTP” (priority 2009, published 2012)
